Like-named read-outs stand apart in the source and are kept apart here.

One data set concerns SCC9 cells. As to the kind of experiment: MTT cell viability assay, SCC9 oral cancer cells. Format: cell-based, human. Particulars: for IC50: MTT; for SCC9 S.I.: selective index = IC50 HGF / IC50 SCC9; for dose-dependent cytotoxicity: SCC9, MTT. Here is the method: (§1) Human SCC-4, SCC-9, and SCC-25 cells derived from a human oral tongue SCC (squamous cell carcinoma) were obtained from the ATCC (CRL-1624, CRL-1629, and CRL-1628, respectively) and maintained in 1:1 DMEM/F12 (Dulbecco’s modified Eagle medium and Ham’s F12 medium; Gibco (Thermo Fisher, Waltham, MA, USA)) supplemented with 10% (v/v) FBS (fetal bovine serum; Invitrogen, Thermo Fisher, Waltham, MA, USA) and 400 ng/mL hydrocortisone (Sigma-Aldrich Co., St. Louis, MO, USA). Primary normal human gingival fibroblasts were obtained from the ATCC (PCS-201-018; HGF) and maintained in DMEM supplemented with 10% (v/v) FBS and were used in a maximum of six passages. The cells were grown in a humidified environment containing 5% CO2 at 37 °C. For all biological experiments, the compounds and control nutlin 3a were solubilized in 100% DMSO (all Sigma-Aldrich) to a final concentration of 10 mM. Carboplatin stock was prepared in water (Fauldcarbo®; LibbsFarmacêutica, São Paulo, SP, Brazil) and was used as a standard anticancer compound.
(§2) The viability of SCC cell lines, HT-29, HCT-116, HEP2G and primary human fibroblast cells was evaluated using the MTT assay as in [26]. Briefly, the cells were grown in duplicates in 96-well plates (5 × 10^3 cells/well) until confluence. Then, the medium was removed, fresh medium was added, and the cells were returned to the incubator in the presence of different compounds. DMSO at the same concentrations was used as a 100% cell viability control. After 48 h, the cells were incubated with 5 mg/mL MTT reagent (3-(4,5-dimethyl-2-thiazolyl)-2,5-diphenyl-2-H-tetrazolium bromide) (Sigma-Aldrich Co., St. Louis, MO, USA) for 3.5 h. After that, formazan crystals were dissolved in MTT solvent solution (DMSO/methanol 1:1 v/v), and the absorbance at 560 nm was evaluated using an EPOCH microplate spectrophotometer (BioTek Instruments, Winooski, VT, USA) with the background absorbance at 670 nm subtracted. Each of the six compounds was tested at six or seven different concentrations, ranging from 0.3 µM to 200 µM in cancer cell lines (SCC-4, SCC-9 and SCC-25) and 0.3 µM to 200 µM in primary normal human gingival fibroblasts. Controls (carboplatin, nutlin 3a) were tested at six or seven different concentrations ranging from 0.05 µM to 1000 µM in cancer cells and normal cells, depending on the compound.
(§3) The data are presented as means ± SD. IC values for the MTT assays were obtained by nonlinear regression using the […] 5.0 program (Intuitive Software for Science, San Diego, CA, USA) from at least three independent experiments. A dose–response (inhibitor) vs. response curve using the least squares method was used to determine the IC50, SD, and R^2 of the data. The selectivity index was calculated as SI = IC50 of the compound in normal oral fibroblast cells/IC50 of the same compound for each cancer cell line (SCC-4, SCC-9, SCC-25, HCT-116, HT29 and HEP2G), and the mean was calculated when indicated.
Initially, the six chalcones (1a–f) were submitted to the MTT assay to evaluate their cytotoxicity. The assay was performed using the oral cancer cell line SCC9, and the results were analyzed by a non-linear regression curve to determine the value of the half maximal inhibitory concentration (IC50). As controls, known chemotherapeutic agents were used, namely carboplatin, routinely used in the treatment of oral cancer, and doxorubicin, widely used for other types of cancers.
On the technique in general: Tetrazolium assays rely on reduction of a dye to a coloured formazan, in cell work by metabolically active cells.

A further data set concerns SCC25 cells. Kind of data set: MTT cell viability assay, SCC25 cells. Format: cell-based, human. Particulars: for IC50: 48 h, MTT; for SCC25 S.I.: selective index = IC50 HGF / IC50 SCC25. As for the experimental part: as §1, §2, §3
Another data set relates to SCC4 cells. Kind of data set: MTT cell viability assay, SCC4 cells. It is filed as cell-based, human. Particulars: for IC50: 48 h, MTT; for SCC4 S.I.: selective index = IC50 HGF / IC50 SCC4. Here is the method: as §1, §2, §3
The test system of data set [1] is Primary Gingival Fibroblast (HGF). Kind of data set: MTT cell viability assay, primary normal gingival fibroblasts. Particulars: 48 h. It is filed as cell-based, human. As for the experimental part: as §1, §2, §3
Data set [2] deals with Oral Tumor Cells (SCC9, SCC25, SCC4). As to the kind of experiment: MTT assay, average over oral tumor cells. It is filed as cell-based, human. Particulars: for IC50: mean of SCC9, SCC25, SCC4; for Average S.I.: IC50 of normal primary fibroblasts / average IC50 of tumor cells. Here is the method: as §2, §3
The nature of data set [3]: Solubility observed during in vitro testing. Particulars: in vitro cytotoxicity testing. Format: physicochemical.
Another data set has as its system HT29 (adenocarcinoma). As to the kind of experiment: MTT cell viability assay, HT29. It is filed as cell-based. As for the experimental part: as §2, §3
Setting [4] is: Homo sapiens, SCC-9, 48 h, 48 h, read-out: SCC9 IC50.
Where [5] appears, read: Homo sapiens, SCC-9, 48 h, SCC9, 48 h, read-out: IC50.

For orientation: IC50 means the concentration needed to halve the response being measured. For the compound `COc1cccc2c1C(=O)c1c(O)c3c(c(O)c1C2=O)C[C@@](O)(C(=O)CO)C[C@@H]3O[C@H]1C[C@H](N)[C@H](O)[C@H](C)O1` [Doxorubicin, doxorubicin, reference compound], the IC50 came to 2.99 µM in the data set with SCC9 cells (setting [4]); 2.99 µM in the data set on SCC9 cells (setting [5]); 0.9 µM in the data set with SCC25 cells (Homo sapiens, SCC-25); 0.57 µM with SCC4 cells (Homo sapiens, SCC-4); 3.47 µM in data set [1] (Homo sapiens, Fibroblast); 1.49 µM in data set [2] (Homo sapiens). In addition, the “SCC9 S.I.” value with SCC9 cells came out at 1.16. Besides, the “SCC25 S.I.” value with SCC25 cells is 3.86. In the data set on SCC4 cells, the “SCC4 S.I.” value came out at 6.09. For the same compound, the “Average S.I.” value in data set [2] is reported as 2.34.
The term melting point denotes the temperature of the solid-liquid transition. `Nc1ccccc1C(=O)/C=C/c1cn(-c2ccc([N+](=O)[O-])cc2)nn1` [1d, (E)-1-(2-Aminophenyl)-3-(1-(4-nitrophenyl)-1H-1,2,3-triazol-4-yl)prop-2-en-1-one] returned a melting point of 253 to 255 °C. In addition, the dose-dependent cytotoxicity result in the data set with SCC9 cells was “all presented dose-dependent cytotoxicity, except”.
In turn, `Nc1ccccc1C(=O)/C=C/c1cnn(-c2ccccc2)n1` [1a, (E)-1-(2-Aminophenyl)-3-(2-phenyl-2H-1,2,3-triazol-4-yl)prop-2-en-1-one] had a melting point of 128 to 130 °C. Also, the IC50 in the data set on SCC9 cells (setting [5]) stood at 9.95 µM. Also, in data set [3], the “solubility (in words)” value is reported as “formed highly insoluble well-structured crystals at low concentrations”.
Turning to `Nc1ccccc1C(=O)/C=C/c1cn(-c2ccccc2)nn1` [1b, (E)-1-(2-Aminophenyl)-3-(1-phenyl-1H-1,2,3-triazol-4-yl)prop-2-en-1-one], the melting point lay in the range of 183 to 185 °C. The IC50 in the data set on SCC9 cells (setting [4]) was 12.7 µM. For the same compound, in the data set on SCC9 cells (setting [5]), the IC50 came out at 12.7 µM. Further, the “SCC9 S.I.” value in the data set on SCC9 cells stood at 2.80. The compound also had a half-inhibitory concentration (IC50) with SCC25 cells (Homo sapiens, SCC-25) of 12.5 µM. Further, the “SCC25 S.I.” value in the data set with SCC25 cells worked out at 2.85. Besides, in the data set on SCC4 cells (Homo sapiens, SCC-4), the IC50 was 12.6 µM. The “SCC4 S.I.” value in the data set with SCC4 cells came to 2.83. Further, the IC50 in data set [1] (Homo sapiens, Fibroblast) stood at 35.7 µM. For the same compound, the IC50 in data set [2] (Homo sapiens) was determined as 12.6 µM. Moreover, the “Average S.I.” value in data set [2] amounted to 2.82. Further, the “solubility (in words)” value in data set [3] is listed as “highly soluble”.
Regarding `COc1ccc(-n2cc(/C=C/C(=O)c3ccccc3N)nn2)cc1` [1c, (E)-1-(2-Aminophenyl)-3-(1-(4-methoxyphenyl)-1H-1,2,3-triazol-4-yl)prop-2-en-1-one], the melting point was 174 to 176 °C. Moreover, the IC50 in the data set on SCC9 cells (setting [5]) is 9.32 µM. In addition, the “solubility (in words)” value in data set [3] is on record as “formed highly insoluble well-structured crystals at low concentrations”.
On to `COc1ccc(C2=N[C@@H](c3ccc(Cl)cc3)[C@@H](c3ccc(Cl)cc3)N2C(=O)N2CCNC(=O)C2)c(OC(C)C)c1` [nutlin-3a, reference compound], for which the IC50 in the data set on SCC9 cells (48 h, read-out: SCC9 IC50) is 18 µM; in data set [1], 49.1 µM; with HT29 (adenocarcinoma) (48 h, MTT), 6.79 µM. Moreover, the “SCC9 S.I.” value in the data set on SCC9 cells worked out at 2.72. In addition, the “HT29 S.I.” value with HT29 (adenocarcinoma) (IC50 HGF / IC50 HT29) is given as 7.22.
On to `N.N.O=C([O-])C1(C(=O)[O-])CCC1.[Pt+2]` [Carboplatin, carboplatin, reference compound], for which the IC50 with SCC9 cells (48 h, read-out: SCC9 IC50) worked out at 156 µM; in the data set on SCC9 cells (SCC9, 48 h, read-out: IC50), 156 µM; in the data set on SCC25 cells, 191 µM; in the data set on SCC4 cells, 148 µM; in data set [1], 335 µM; in data set [2] it was 165 µM. The “SCC9 S.I.” value in the data set with SCC9 cells is on record as 2.15. Besides, the “SCC25 S.I.” value in the data set on SCC25 cells came to 1.75. Further, the “SCC4 S.I.” value in the data set with SCC4 cells is on record as 2.26. In data set [2], the “Average S.I.” value turned out to be 2.03.
In the case of `CCOC(=O)c1ccc(-n2cc(/C=C/C(=O)c3ccccc3N)nn2)cc1` [1e, Ethyl(E)-4-(4-(3-(2-aminophenyl)-3-oxoprop-1-en-1-yl)-1H-1,2,3-triazol-1-yl)benzoate], the melting point was in the range of 220 to 222 °C. The dose-dependent cytotoxicity result in the data set on SCC9 cells is given as “all presented dose-dependent cytotoxicity, except”.

For the origin of these results see paper PMC10295897, “A Novel MDM2-Binding Chalcone Induces Apoptosis of Oral Squamous Cell Carcinoma” (Biomedicines, 2023).
